Results as given in ChEMBL document CHEMBL5104137, “The overview of Mitogen-activated extracellular signal-regulated kinase (MEK)-based dual inhibitor in the treatment of cancers” (Bioorg Med Chem, 2022).

How the values were obtained:
[1] = Inhibition of Xenopus laevis Aurora Kinase C
[2] = Cmax in BomTac:NMRI-Foxn1 mouse xenografted with human Calu6 cells harboring KRAS Q61K mutant at 70 mg/kg per week, po via gavage by electrochemo-luminescence analysis; assay type: ADME, organism-based, Calu-6; design: dose 70 mg/kg, route po; conditions: in vivo
[3] = Cmax in BomTac:NMRI-Foxn1 mouse xenografted with human Calu6 cells harboring KRAS Q61K mutant at 10 mg/kg per day, po via gavage measured after 24 hrs by electrochemo-luminescence analysis; assay type: ADME, organism-based, Calu-6; design: time 24 hrs, dose 10 mg/kg, route po; conditions: in vivo
[4] = Cmax in BomTac:NMRI-Foxn1 mouse xenografted with human Calu6 cells harboring KRAS Q61K mutant at 10 mg/kg per day, po via gavage by electrochemo-luminescence analysis; assay type: ADME, organism-based, Calu-6; design: dose 10 mg/kg, route po; conditions: in vivo
Aurora kinase B-B = Aurora kinase B-B (Xenopus laevis, UniProt Q6GPL3); test: Inhibition of Xenopus laevis Aurora Kinase B
[5] = Cmax in BomTac:NMRI-Foxn1 mouse xenografted with human Calu6 cells harboring KRAS Q61K mutant at 70 mg/kg per week, po via gavage measured after 24 hrs by electrochemo-luminescence analysis; assay type: ADME, organism-based, Calu-6; design: dose 70 mg/kg, time 24 hrs, route po; conditions: in vivo
[6] = Inhibition of human MEK using 5-Fl-SGQLIDSMANSFV-NH2 peptide as substrate by FRET assay
SK-MEL-2 = test: Antiproliferative activity against human SK-MEL-2 cells harboring NRAS Q61R mutant assessed as cell growth inhibition measured after 72 hrs by WST-8 assay; assay type: functional, cell-based; conditions: SK-MEL-2, 72 h
HCT-116 = test: Antiproliferative activity against human HCT-116 cells harboring […] mutant assessed as cell growth inhibition measured after 72 hrs by WST-8 assay; assay type: functional, cell-based; conditions: HCT-116, 72 h
SK-MEL-28 = test: Antiproliferative activity against human SK-MEL-28 cells harboring BRAF V600E mutant assessed as cell growth inhibition measured after 72 hrs by WST-8 assay; assay type: functional, cell-based; conditions: SK-MEL-28, 72 h
[7] = target: Serine/threonine-protein kinase B-raf (Homo sapiens, UniProt P15056); test: Inhibition of wild type human BRAF using 5-Fl-SGQLIDSMANSFV-NH2 peptide as substrate by FRET assay
[8] = target: Serine/threonine-protein kinase B-raf (Homo sapiens, UniProt P15056, V600E); test: Inhibition of human BRAF V600E mutant using 5-Fl-SGQLIDSMANSFV-NH2 peptide as substrate by FRET assay
MIA PaCa-2 = test: Antiproliferative activity against human MIA PaCa-2 cells harboring […] mutant assessed as cell growth inhibition measured after 72 hrs by WST-8 assay; assay type: functional, cell-based; conditions: MIA PaCa-2, 72 h
SW480 = test: Antiproliferative activity against human SW480 cells harboring […] mutant assessed as cell growth inhibition measured after 72 hrs by WST-8 assay; assay type: functional, cell-based; conditions: SW480, 72 h
[9] = Antiproliferative activity against human CT-TC cells harboring HRAS Q61K mutant assessed as cell growth inhibition measured after 72 hrs by WST-8 assay; assay type: functional, cell-based
MV4-11 = test: Antiproliferative activity against human MV4-11 cells harboring FLT3-ITD mutant assessed as cell growth inhibition by trypan blue staining based assay; assay type: functional
BaF3 [10] = test: Antiproliferative activity against […] cells harboring D835Y mutant assessed as cell growth inhibition by trypan blue staining based assay; assay type: functional; conditions: Mus musculus
MOLM-13 = test: Antiproliferative activity against human MOLM13 cells harboring FLT3-ITD mutant assessed as cell growth inhibition by Trypan blue staining based assay; assay type: functional
BaF3 [11] = test: Antiproliferative activity against […] cells harboring D835G mutant assessed as cell growth inhibition by trypan blue staining based assay; assay type: functional; conditions: Mus musculus

Aurora kinase B-B, sequence (Q6GPL3 whole entry): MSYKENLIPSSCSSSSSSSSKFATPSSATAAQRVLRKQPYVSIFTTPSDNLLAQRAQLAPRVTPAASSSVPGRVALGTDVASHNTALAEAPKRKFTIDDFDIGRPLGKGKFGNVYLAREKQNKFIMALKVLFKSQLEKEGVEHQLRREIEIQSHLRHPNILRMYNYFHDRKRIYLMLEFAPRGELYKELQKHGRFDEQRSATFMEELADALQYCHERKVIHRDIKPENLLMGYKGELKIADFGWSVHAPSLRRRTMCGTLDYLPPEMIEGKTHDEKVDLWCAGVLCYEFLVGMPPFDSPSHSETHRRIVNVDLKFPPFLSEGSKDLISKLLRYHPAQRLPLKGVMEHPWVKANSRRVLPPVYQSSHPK
Serine/threonine-protein kinase B-raf (Homo sapiens, UniProt P15056, V600E), sequence (P15056 2-766 V600E limits assumed): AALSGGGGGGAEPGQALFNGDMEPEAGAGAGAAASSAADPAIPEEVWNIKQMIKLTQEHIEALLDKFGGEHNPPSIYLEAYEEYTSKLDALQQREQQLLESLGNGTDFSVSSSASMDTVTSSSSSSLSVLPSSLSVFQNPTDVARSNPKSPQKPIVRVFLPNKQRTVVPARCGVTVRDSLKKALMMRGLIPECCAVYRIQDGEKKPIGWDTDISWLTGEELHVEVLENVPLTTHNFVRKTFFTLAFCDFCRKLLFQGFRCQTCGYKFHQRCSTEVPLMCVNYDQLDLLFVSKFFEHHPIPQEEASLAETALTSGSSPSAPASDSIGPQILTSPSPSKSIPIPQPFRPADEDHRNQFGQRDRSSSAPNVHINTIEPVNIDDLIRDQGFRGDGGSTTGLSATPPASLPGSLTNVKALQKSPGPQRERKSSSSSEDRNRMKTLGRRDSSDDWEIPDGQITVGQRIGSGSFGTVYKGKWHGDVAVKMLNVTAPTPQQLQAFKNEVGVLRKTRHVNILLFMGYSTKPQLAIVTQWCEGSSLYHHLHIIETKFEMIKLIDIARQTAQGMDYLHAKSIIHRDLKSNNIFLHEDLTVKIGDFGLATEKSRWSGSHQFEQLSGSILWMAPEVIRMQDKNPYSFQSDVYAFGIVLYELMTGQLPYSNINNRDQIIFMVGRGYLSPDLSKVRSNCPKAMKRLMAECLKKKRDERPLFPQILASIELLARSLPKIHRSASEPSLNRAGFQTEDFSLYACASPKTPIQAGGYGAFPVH
Serine/threonine-protein kinase B-raf (Homo sapiens, UniProt P15056), sequence (P15056 whole entry): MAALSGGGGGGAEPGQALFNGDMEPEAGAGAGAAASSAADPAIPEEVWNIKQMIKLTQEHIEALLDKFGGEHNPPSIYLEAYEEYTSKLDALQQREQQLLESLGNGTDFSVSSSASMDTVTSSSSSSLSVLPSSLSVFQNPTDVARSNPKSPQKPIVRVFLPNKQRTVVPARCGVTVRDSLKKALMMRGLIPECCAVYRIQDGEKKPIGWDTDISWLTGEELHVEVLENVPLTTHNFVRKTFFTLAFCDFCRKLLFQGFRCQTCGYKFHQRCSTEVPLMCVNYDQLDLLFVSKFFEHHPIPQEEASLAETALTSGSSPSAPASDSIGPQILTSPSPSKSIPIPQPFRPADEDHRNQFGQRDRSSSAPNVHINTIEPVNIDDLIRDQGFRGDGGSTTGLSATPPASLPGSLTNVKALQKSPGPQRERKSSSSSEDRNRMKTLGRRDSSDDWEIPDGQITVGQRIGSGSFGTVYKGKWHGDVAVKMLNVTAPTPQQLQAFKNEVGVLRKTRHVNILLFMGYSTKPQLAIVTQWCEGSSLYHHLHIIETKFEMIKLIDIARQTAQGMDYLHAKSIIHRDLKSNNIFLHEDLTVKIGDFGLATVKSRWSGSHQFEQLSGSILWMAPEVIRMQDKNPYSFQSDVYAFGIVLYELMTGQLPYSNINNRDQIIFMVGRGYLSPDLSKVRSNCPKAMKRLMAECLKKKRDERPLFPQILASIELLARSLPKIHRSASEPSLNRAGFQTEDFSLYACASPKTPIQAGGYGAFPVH

Work on CCNC(=O)C#Cc1ccc2c(c1)NC(=O)/C2=C(\Nc1ccc(CN(C)C)cc1)c1ccccc1 yielded an IC50 [1] of 15 nM, a Cmax [2] of 2700 nM and a Cmax [3] of 13 nM. The Cmax [4] was 380 nM, the IC50 (Aurora kinase B-B) was 3 nM and the Cmax [5] was 460 nM.
CNS(=O)(=O)Nc1nccc(Cc2c(C)c3ccc(Oc4ncccn4)cc3oc2=O)c1F [AVUTOMETINIB] gave an IC50 [6] of 160 nM, an IC50 (SK-MEL-2) of 28 nM and an IC50 (HCT-116) of 277 nM. For the same molecule, the IC50 (SK-MEL-28) was 65 nM, the IC50 [7] was 19 nM and the IC50 [8] was 8.2 nM. It also gave an IC50 (MIA PaCa-2) of 40 nM, an IC50 (SW480) of 46 nM and an IC50 [9] of 360 nM.
CCNc1cc(O)c2c(c1)/C=C/C[C@H](O)[C@H](O)C(=O)/C=C\[C@@H](C)[C@H](C)OC2=O [E-6201] gave an IC50 (MV4-11) of 2 nM, an IC50 (BaF3 [10]) of 26 nM and an IC50 (MOLM-13) of 5 nM. The IC50 (BaF3 [11]) was 4.6 nM.
